# Test results reported in US10144742B2 (Millennium Pharmaceuticals, Inc., priority 2014, dated 2018).
# pIC50: −log10 of the molar value. Like-named read-outs stand apart in the source and are kept apart here.
# Tests used:
# [1] = target: hNAMPT protein (Homo sapiens (Human), UniProt P43490); assay: NAMPT enzyme assay (TR-FRET/HTRF, BodiPY ligand, anti 6His-Tb); format: binding; conditions: for pIC50: read-out: IC50; for inhibition at 1 µM: read-out: Percent Inhibition
# Description: As discussed above, the invention provides compounds that are useful as inhibitors of the enzyme NAMPT. The NAMPT inhibition of a compound of the invention can be measured using a variety of methods known in the art. For example, the ability of a compound of the invention to inhibit NAMPT enzyme activity can be measured using a homogeneous time resolved fluorescence (HTRF) assay using hNAMPT protein and anti 6His-Tb in buffer treated with a compound of the invention (or control e.g., DMSO) and BodiPY ligand. The TR-FRET signal can be measured using a high throughput microplate reader (e.g., Pherastar). Excitation can be carried out at 320 nm. The percent inhibition value at a single concentration of compound of the invention can be calculated relative to a control treated sample. A concentration response curve can be generated for each compound of the invention and the curve fitted to generate an IC50 value. […] Cat. No. […] To this solution is added test compounds or vehicle control (DMSO) and BodiPY ligand (structure below). The plate is shaken for 1-2 min, sealed and incubated for 1 hour at rt in the dark. The TR-FRET signal is measured using BMG Pherastar (Lanthascreen protocol on BMG Pherastar). Excitation was carried out at 320 nm, and the ratio of emission of BodiPY (520 nm) to terbium (486 nm) was determined. Concentration response curves are generated by calculating the excitation increase in test compound-treated samples relative to DMSO-treated controls. For the assay method described above, test compound percent inhibition values at a single concentration are calculated relative to control (DMSO) treated samples. Compound concentration response curves are fitted to generate IC50 values from those curves. One skilled in the art will appreciate that these values generated either as percentage inhibition at a single concentration or IC50 values are subject to experimental variation.
# [2] = test system: PC3 cells; assay: PC3 growth inhibition (Cell-titer glo, 72 hours); format: cell-based; conditions: Homo sapiens, PC-3, PC3 cells, 72 hours, Cell-titer glo, read-out: Percent Inhibition (PC3 growth inhibition); for inhibition at 1.667 µM: compound concentration 1.667 μM; for inhibition at 1 µM: compound concentration 1 μM
# Protocol: The ability of a compound of the invention to inhibit the growth of cells can be measured using a variety of methods known in the art. For example, the ability of a compound of the invention to inhibit the growth of PC3 cells can be measured. PC3 cells can be plated and incubated overnight under CO2. For each measurement, a compound of the invention (or vehicle e.g., DMSO) can be diluted with AIM serum free medium and added to the cell plate. The cell plate can then be incubated for 72 h under CO2. Cell-titer glo solution can be added and the plates can be incubated protected from light and the amount of luminescences can be measured. Concentration response curves can be generated by calculating the luminescence increase in test compound treated samples relative to DMSO-treated controls. Percentage remaining viability values at a single concentration can be measured. Growth inhibition (GI50) or cell viability (LD50) values can be determined from those curves.
# Compounds of the invention were assayed to measure PC3 growth inhibition at a concentration of 1 μM or 1.667 μM (Table 3). To measure PC3 growth inhibition, PC3 cells that were maintained in PRMI1640 growth medium (Life Technologies; Cat. No. 11875) at 37° C. under 5% CO2 are trypsinized and diluted at a density of 8×10^4 cells/ml, 25 ul per well of cells and plated in 384-well black tissue culture plate. The cells are incubated overnight at 37° C. under 5% CO2. For each measurement, a test compounds or vehicle control (DMSO) are diluted with AIM serum free medium and added to the cell plate. Incubate for 72 hours at 37° C. under 5% CO2. 25 μl Cell-titer glo solution (Promega; Cat. No. G8462) is added and the cell plates are incubated for 10 minutes protected from light. The luminescence is measured. Concentration response curves are generated by calculating the luminescence increase in test compound-treated samples relative to DMSO-treated controls. Percentage remaining viability values at a single concentration, growth inhibition (GI50) or cell viability (LD50) values are determined from those curves. One skilled in the art will appreciate that these values are subject to experimental variation.
# hNAMPT protein, sequence (P43490 whole entry): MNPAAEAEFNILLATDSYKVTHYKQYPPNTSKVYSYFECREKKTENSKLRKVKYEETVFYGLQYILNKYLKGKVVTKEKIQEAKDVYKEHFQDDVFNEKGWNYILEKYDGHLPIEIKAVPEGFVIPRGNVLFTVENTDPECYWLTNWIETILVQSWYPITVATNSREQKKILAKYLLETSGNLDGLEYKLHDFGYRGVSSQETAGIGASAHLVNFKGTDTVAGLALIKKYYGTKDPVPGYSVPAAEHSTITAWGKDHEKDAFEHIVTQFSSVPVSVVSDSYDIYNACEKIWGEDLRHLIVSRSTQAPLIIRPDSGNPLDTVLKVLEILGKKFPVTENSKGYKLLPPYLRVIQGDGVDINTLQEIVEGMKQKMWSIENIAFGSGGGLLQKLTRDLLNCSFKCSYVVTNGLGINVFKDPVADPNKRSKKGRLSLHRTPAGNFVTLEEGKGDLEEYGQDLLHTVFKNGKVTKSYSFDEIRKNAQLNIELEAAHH
SMILES,pIC50 ([1]; NAMPT IC50 range class),inhibition at 1 µM ([1]; compound concentration 1 μM) [%],inhibition at 1 µM [2] [%],other results
"O=C(NCCc1ncc[nH]1)c1ccc2nc(N3CCCCC3)c(-c3ccc(F)cc3)nc2c1 [Compound I-1, 3-(4-Fluorophenyl)-N-[2-(1H-imidazol-2-yl)ethyl]-2-(piperidin-1-yl)quinoxaline-6-carboxamide]",6.00 to 6.30,51,–,inhibition at 1.667 µM [2]: 3%
"CC(=O)Nc1cccc(-c2nc3ccc(C(=O)NCCCn4ccnc4)cc3nc2-c2ccccc2)c1 [Compound I-2, 2-(3-acetamidophenyl)-N-[3-(1H-imidazol-1-yl)propyl]-3-phenylquinoxaline-6-carboxamide]",6.30 to 7.00,77,-7,–
"CN1CC=C(c2nc3cc(C(=O)NCCCn4ccnc4)ccc3nc2-c2ccccc2)CC1 [Compound I-3, N-[3-(1H-imidazol-1-yl)propyl]-3-(1-methyl-1,2,3,6-tetrahydropyridin-4-yl)-2-phenylquinoxaline-6-carboxamide]",5.00 to 5.70,9,39,–
"Cn1cncc1CCNC(=O)c1ccc2nc(N3CCCCC3)c(-c3ccc(F)cc3)nc2c1 [Compound I-4, 3-(4-fluorophenyl)-N-[2-(1-methyl-1H-imidazol-5-yl)ethyl]-2-(piperidin-1-yl)quinoxaline-6-carboxamide]",> 7.00,93,–,inhibition at 1.667 µM [2]: 2%
"O=C(NCCCn1ccnc1)c1ccc2nc(-c3ccncc3)c(-c3ccccc3)nc2c1 [Compound I-5, N-[3-(1H-imidazol-1-yl)propyl]-3-phenyl-2-(pyridin-4-yl)quinoxaline-6-carboxamide]",6.00 to 6.30,53,-7,–
"NC(=O)c1ccc(-c2nc3cc(C(=O)NCCCn4ccnc4)ccc3nc2-c2ccccc2)cc1 [Compound I-6, 3-(4-carbamoylphenyl)-N-[3-(1H-imidazol-1-yl)propyl]-2-phenylquinoxaline-6-carboxamide]",5.00 to 5.70,20,91,–
"O=C1CN(c2nc3ccc(C(=O)NCCCn4ccnc4)cc3nc2-c2ccccc2)CN1 [Compound I-7, N-[3-(1H-imidazol-1-yl)propyl]-2-(4-oxoimidazolidin-1-yl)-3-phenylquinoxaline-6-carboxamide]",5.00 to 5.70,12,105,–
"O=C(NCCCn1nnnc1S)c1ccc2nc(-c3ccc(F)cc3)c(-c3ccc(F)cc3)nc2c1 [Compound I-8, 2,3-bis(4-fluorophenyl)-N-[3-(5-sulfanyl-1H-tetrazol-1-yl)propyl]quinoxaline-6-carboxamide]",5.70 to 6.00,43,103,–
"Cc1nc(C)c(-c2nc3cc(C(=O)NCCCn4ccnc4)ccc3nc2-c2ccccc2)s1 [Compound I-9, 3-(2,4-dimethyl-1,3-thiazol-5-yl)-N-[3-(1H-imidazol-1-yl)propyl]-2-phenylquinoxaline-6-carboxamide]",5.70 to 6.00,36,1,–
"Cc1ccc(CCCNC(=O)c2ccc3nc(N4CCOCC4)c(-c4ccc(F)cc4)nc3c2)cn1 [Compound I-21, 3-(4-Fluorophenyl)-N-[3-(6-methylpyridin-3-yl)propyl]-2-(morpholin-4-yl)quinoxaline-6-carboxamide]",6.00 to 6.30,–,–,inhibition at 1 µM [1]: 50%
"O=C(c1ccc2nc(-c3ccc(F)cc3)c(-c3ccc(F)cc3)nc2c1)N1CCC(c2cnccn2)C1 (stereo not shown) [Compound I-40, [2,3-bis(4-fluorophenyl)quinoxalin-6-yl][3-(pyrazin-2-yl)pyrrolidin-1-yl]methanone]",5.00 to 5.70,33,–,–
"O=C(NCCc1ncc[nH]1)c1ccc2nc(N3CCC(N4CCOCC4)CC3)c(-c3ccccc3)nc2c1 [Compound I-71, N-[2-(1H-imidazol-2-yl)ethyl]-2-[4-(morpholin-4-yl)piperidin-1-yl]-3-phenylquinoxaline-6-carboxamide]",6.30 to 7.00,81,–,–
"O=C(c1ccc2nc(-c3ccc(F)cc3)c(-c3ccc(F)cc3)nc2c1)N1CCC(c2ccncc2)C1 (stereo not shown) [Compound I-98, [2,3-bis(4-fluorophenyl)quinoxalin-6-yl][3-(pyridin-4-yl)pyrrolidin-1-yl]methanone]",5.70 to 6.00,41,–,–
"O=C(c1ccc2nc(-c3ccc(F)cc3)c(-c3ccc(F)cc3)nc2c1)N1CC(c2ccccn2)C1 [Compound I-110, [2,3-bis(4-fluorophenyl)quinoxalin-6-yl][3-(pyridin-2-yl)azetidin-1-yl]methanone]",6.00 to 6.30,66,–,–
"O=C(c1ccc2nc(-c3ccc(F)cc3)c(-c3ccc(F)cc3)nc2c1)N1CCc2cnccc2C1 [Compound I-160, [2,3-bis(4-fluorophenyl)quinoxalin-6-yl](3,4-dihydro-2,6-naphthyridin-2(1H)-yl)methanone]",5.00 to 5.70,45,–,–
"Cc1ccc(CCCNC(=O)c2ccc3nc(N4CCCCC4)c(-c4ccc(F)cc4)nc3c2)cn1 [Compound I-185, 3-(4-fluorophenyl)-N-[3-(6-methylpyridin-3-yl)propyl]-2-(piperidin-1-yl)quinoxaline-6-carboxamide]",6.00 to 6.30,57,–,–
"O=C(c1ccc2nc(-c3ccc(F)cc3)c(-c3ccc(F)cc3)nc2c1)N1CCC(c2ccncc2)CC1 [Compound I-186, [2,3-bis(4-fluorophenyl)quinoxalin-6-yl][4-(pyridin-4-yl)piperidin-1-yl]methanone]",5.00 to 5.70,19,–,–
"O=C(c1ccc2nc(-c3ccc(F)cc3)c(-c3ccc(F)cc3)nc2c1)N1CCCC1Cc1cccnc1 (stereo not shown) [Compound I-246, [2,3-bis(4-fluorophenyl)quinoxalin-6-yl][2-(pyridin-3-ylmethyl)pyrrolidin-1-yl]methanone]",5.00 to 5.70,30,–,–
"O=C(c1ccc2nc(-c3ccc(F)cc3)c(-c3ccc(F)cc3)nc2c1)N1CC(n2cccn2)C1 [Compound I-249, [2,3-bis(4-fluorophenyl)quinoxalin-6-yl][3-(1H-pyrazol-1-yl)azetidin-1-yl]methanone]",5.70 to 6.00,45,–,–
"O=C(NCCCn1ccnc1)c1ccc2nc(-c3ccccc3Cl)c(-c3ccccc3Cl)nc2c1 [Compound I-260, 2,3-bis(2-chlorophenyl)-N-[3-(1H-imidazol-1-yl)propyl]quinoxaline-6-carboxamide]",5.00 to 5.70,19,–,–
"O=C(NCCc1c[nH]c2ccccc12)c1ccc2nc(-c3ccc(F)cc3)c(-c3ccc(F)cc3)nc2c1 [Compound I-293, 2,3-bis(4-fluorophenyl)-N-[2-(1H-indol-3-yl)ethyl]quinoxaline-6-carboxamide]",5.00 to 5.70,26,–,–
"O=C(c1ccc2nc(-c3ccc(F)cc3)c(-c3ccc(F)cc3)nc2c1)N1CCC(c2ncccn2)C1 (stereo not shown) [Compound I-294, [2,3-bis(4-fluorophenyl)quinoxalin-6-yl][3-(pyrimidin-2-yl)pyrrolidin-1-yl]methanone]",5.00 to 5.70,22,–,–
"COc1cccc(-c2nc3cc(C(=O)NCCCc4ncc[nH]4)ccc3nc2-c2ccc(F)cc2)n1 [Compound I-495, 2-(4-fluorophenyl)-N-[3-(1H-imidazol-2-yl)propyl]-3-(6-methoxypyridin-2-yl)quinoxaline-6-carboxamide]",–,–,–,"inhibition at 1 µM ([1]; NAMPT inhibition at compound concentration 1 μM): 96%; pIC50 ([1]; NAMPT inhibition, IC50 range class): > 7.00"
